BindingDB's records for doi:10.1021/jm030050p (Johnson & Johnson Pharmaceutical Research & Development, 2003)
Where a name gives a salt, the structure may show the parent alone.

Biological target: Trypsin (Bos taurus)
Test: In vitro inhibition of bovine trypsin.

Ki [nM] | SMILES
16 | CC(=O)N1C[C@H](O)C[C@H]1C(=O)NC(CCCN)C(=O)c1nc2ccccc2s1 (some centres not stated) [1-Acetyl-4-hydroxy-pyrrolidine-2-carboxylic acid [4-amino-1-(benzothiazole-2-carbonyl)-butyl]-amide; TFA]
38 | COS(=O)(=O)N1CCC[C@H]1C(=O)N[C@@H](CCCNC(=N)N)C(=O)c1nc2ccccc2s1 [2-[1-(Benzothiazole-2-carbonyl)-4-guanidino-butylcarbamoyl]-pyrrolidine-1-sulfonic acid methyl ester; TFA]
